Source: article PMC8760323, “Single-chain tandem macrocyclic peptides as a scaffold for growth factor and cytokine mimetics” (Communications Biology, 2022)

Legend:
Type in all cases: cell-based, human
HuCCT1 cells [1] = experiment: Branching morphogenesis in collagen gel; details: 7 days; 0.44 nM rhHGF or […] aMD4dY-PA22
Method: HuCCT1 cells at a density of 20,000 cells/well were mixed with 400 μL of ice-cold collagen-containing culture medium (DMEM/Nutrient Mixture F-12, CellMatrix type IA [Nitta Gelatin Inc., Osaka, Japan], 2.2 g/L of sodium bicarbonate, 4.77 g/L of 4-(2-hydroxyethyl)-1-piperazineethanesulfonic acid [HEPES], and 0.005 N sodium hydroxide) and incubated in a 48-well cell culture plate in 5% CO2 at 37 °C for gelation. The cells encapsulated in the collagen gel were cultured with 500 μL of RPMI 1640 medium supplemented with 10% FBS with or without 0.44 nM HGF or 6.3 nM aMD4dY-PA22 in 5% CO2 at 37 °C. The culture medium was changed every 3 days. At day 7, the cells were observed by inverted microscopy.

BM-hMSCs [2] = experiment: Proliferation assay, BM-hMSCs (WST-8); details: 3 days, 1.3 nM rhHGF or 32 nM aMD4dY-PA22; for WST-8 absorbance, Normalized: normalized by mock
Method: BM-hMSC cells at a density of 2500 cells/well were seeded on a 96-well cell culture plate with DMEM supplemented with 10% FBS with or without 1.3 nM rhHGF or 32 nM aMD4dY-PA22. After 3 days of culture in 5% CO2 at 37 °C, Cell Counting Reagent SF (Dojindo Laboratories, Japan) was added to the cells. After 1 h incubation, cell numbers were quantified by detection of absorbance at 450 nm using the Benchmark Plus plate reader (Bio-Rad Laboratories, Hercules, CA, USA).

BM-hMSCs [3] = experiment: Cytokine array of conditioned media; details: 3 days
Method: The conditioned media (supernatant) of BM-hMSCs unstimulated or stimulated with 1.3 nM rhHGF or 32 nM aMD4dY-PA22 for 3 days were filtered using Millex-GV 0.22 µm PVDF membrane filter (Millipore) and analyzed using Human Cytokine Array C5 (Ray Biotech) according to the manufacturer’s instructions. Chemiluminescence was detected using Amersham Imager 600 (Cytiva).

RTKs = experiment: Phospho-RTK array; details: 1.3 nM rhHGF or 32 nM aMD4dY-PA22, 10 min
Method: Ligand specificity against RTKs was evaluated using the Proteome Profiler Human Phospho-RTK Array Kit (R&D Systems). Confluent HEK293 cells in a 10 cm cell culture dish were starved in DMEM supplemented with 0.5% FBS and penicillin-streptomycin for 24 h. The starved cells were stimulated by 1.3 nM rhHGF or 32 nM aMD4dY-PA22 for 10 min, rinsed once with PBS, and lysed with 1 mL of lysis buffer 17 (R&D Systems) supplemented with a protease inhibitor cocktail (Nacalai Tesque). Lysates were analyzed using the Proteome Profiler Human Phospho-RTK Array Kit (R&D Systems) according to the manufacturer’s instructions. Chemiluminescence was detected using the Molecular Imager ChemiDoc XRS System (Bio-Rad Laboratories).

HuCCT1 cells [4] = experiment: Proliferation assay, HuCCT1 cells; details: 5 days, 0.44 nM rhHGF or […] aMD4dY-PA22; for Relative cell growth: normalized by mock
Method: The activity of aMD4dY-PA22 against HuCCT1 cell and BM-hMSC proliferation was evaluated. HuCCT1 cells at a density of 5000 cells/well were seeded on a 24-well cell culture plate with RPMI 1640 medium supplemented with 5% FBS with or without 0.44 nM rhHGF or 6.3 nM aMD4dY-PA22. After 5 days of culture in 5% CO2 at 37 °C, the cells were detached by 0.25% trypsin/ethylenediaminetetraacetic acid (EDTA; Thermo Fisher Scientific) and counted using a Countess automated cell counter (Thermo Fisher Scientific).

HuCCT1 cells [5] = experiment: Scratch assay (wound healing); details: for wound healing compared with no stimulation: 0.41 nM rhHGF or 16 nM aMD4dY-PA22; for Closure rate / Wound closure: 1 to 7 h, 0.41 nM HGF or 16 nM aMD4dY-PA22
Method: HuCCT1 cells at a density of 50,000 cells/well in RPMI 1640 medium supplemented with 10% FBS were added to a 96-well cell culture plate and incubated overnight in 5% CO2 at 37 °C to form cellular monolayers. The centers of the cellular monolayers were scratched with 1000 μL micropipette tips and incubated in RPMI 1640 medium supplemented with 0.5% FBS with or without 0.41 nM HGF or 16 nM aMD4dY-PA22 in 5% CO2 at 37 °C. Images of the cells were captured every hour using BioStudio-T (Nikon, Tokyo, Japan). The average wound healing rate was calculated as [(width of the wound 1 h after scratching) − (width of the wound […])]/6.

BM-hMSCs [6] = experiment: Flow cytometry of MSC surface markers; details: for surface marker expression of stimulated BM-hMSCs: 3 days; for CD45 Positive (%) / CD90 Positive (%): flow cytometry, Fig. S11b
Method: The marker expression of BM-hMSCs unstimulated or stimulated using 1.3 nM rhHGF or 32 nM aMD4dY-PA22 for 3 days were analyzed via flow cytometry. Harvested cells were blocked with PBS supplemented with Human TruStain FcX (Biolegend) for 10 min on ice. […] For the isotype controls, 1:10 diluted PE mouse IgG1 k Isotype (Biolegend) and FITC mouse IgG1 k Isotype (Biolegend) were utilized. After washing two times with a cell stain buffer, cells were analyzed using Attune NxT flow cytometer (Thermo Fisher Scientific).

hPBMCs = experiment: Colony-forming assay; details: sheet Fig. 4, Fig. 4b
Method: Next, 1.1 mL of the mixture was seeded in a 6-well cell culture plate and cultured for 13 days in 5% CO2 at 37 °C. At day 13, colony numbers were counted, and images were taken by inverted microscopy and BZ-X fluorescence microscopy.

Row | Substance | branching morphology (HuCCT1 cells [1]) | growth of BM-hMSCs (BM-hMSCs [2]) | WST-8 absorbance, Normalized (BM-hMSCs [2]; N 1) | WST-8 absorbance, Normalized (BM-hMSCs [2]; N 2) | WST-8 absorbance, Normalized (BM-hMSCs [2]; N 3) | cytokines and growth factors in conditioned supernatant (BM-hMSCs [3]) | selectivity against RTKs (RTKs) | proliferation compared to the unstimulated condition (HuCCT1 cells [4]) | Relative cell growth (HuCCT1 cells [4]; N 1) | Relative cell growth (HuCCT1 cells [4]; N 2) | Relative cell growth (HuCCT1 cells [4]; N 3) | wound healing compared with no stimulation (HuCCT1 cells [5]) [fold] | Closure rate (HuCCT1 cells [5]; replicate 1) [μm/h] | Wound closure (HuCCT1 cells [5]; replicate 1) [μm] | Closure rate (HuCCT1 cells [5]; replicate 2) [μm/h] | Wound closure (HuCCT1 cells [5]; replicate 2) [μm] | Closure rate (HuCCT1 cells [5]; replicate 3) [μm/h] | Wound closure (HuCCT1 cells [5]; replicate 3) [μm] | Closure rate (HuCCT1 cells [5]; replicate 4) [μm/h] | Wound closure (HuCCT1 cells [5]; replicate 4) [μm] | other results
1 | rhHGF: recombinant human HGF (R&D Systems) | showed branched tubular structures | slightly promoted proliferation | 1.1816 | 1.335 | 1.247 | to the same extent as unstimulated parental BM-hMSCs | highly Met-selective | twofold | 2.286 | 2.429 | 2.071 | 1.6 | 88.8457 | 533.074 | 100.748 | 604.487 | 98.5177 | 591.106 | 94.0632 | 564.379 | surface marker expression of stimulated BM-hMSCs (BM-hMSCs [6]): expressed hMSC positive markers (CD105, CD73, CD90) and no negative markers (CD45, CD34); CD45 Positive (%) (BM-hMSCs [6]; replicate 1): 1.409%; CD90 Positive (%) (BM-hMSCs [6]; replicate 1): 99.927%; CD45 Positive (%) (BM-hMSCs [6]; replicate 2): 1.405%; CD90 Positive (%) (BM-hMSCs [6]; replicate 2): 99.878%; Colony number (hPBMCs; N 1): 88.8457; Colony number (hPBMCs; N 2): 100.748; Colony number (hPBMCs; N 3): 98.5177; Colony number (hPBMCs; N 4): 94.0632
2 | AET - CRQFNRRTHEVWNLDCG - AAPAAPA PAAPAAPA PAAPAA PG - CRQFNRRTHEVWNLDC (bicyclic or more) [aMD4dY-PA22, HGF mimetic STaMPtide, two aMD4dY macrocycles with a 22-amino-acid PA linker, secreted by C. glutamicum] | showed branched tubular structures | slightly promoted proliferation | 1.155 | 1.175 | 1.237 | to the same extent as unstimulated parental BM-hMSCs | highly Met-selective | twofold | 2.429 | 2.429 | 2.571 | 1.8 | 104.419 | 626.514 | 110.38 | 662.279 | 95.5447 | 573.268 | 95.787 | 574.722 | surface marker expression of stimulated BM-hMSCs (BM-hMSCs [6]): expressed hMSC positive markers (CD105, CD73, CD90) and no negative markers (CD45, CD34); CD45 Positive (%) (BM-hMSCs [6]; replicate 1): 0.665%; CD90 Positive (%) (BM-hMSCs [6]; replicate 1): 99.857%; CD45 Positive (%) (BM-hMSCs [6]; replicate 2): 1.718%; CD90 Positive (%) (BM-hMSCs [6]; replicate 2): 99.76%; Colony number (hPBMCs; N 1): 104.419; Colony number (hPBMCs; N 2): 110.38; Colony number (hPBMCs; N 3): 95.5447; Colony number (hPBMCs; N 4): 95.787
